From patent US7723523B2, “Tetrahydropyridothiophenes” (4SC AG, priority 2004, dated 2010)

Key:
[1] = system: RKO colon adenocarcinoma cells (RKOp27) arrested by expression of ectopic p27Kip1; assay: Alamar Blue cell viability assay on RKOp27 cells arrested by Ponasterone A-induced p27Kip1 (cell cycle specific mode of action); format: cell-based; conditions: Homo sapiens, RKOp27, 72 h, cells arrested by p27Kip1 induced with 10 μM Ponasterone A, 72 hours incubation, read-out: IC50 RKO p27 arrested
Method in brief: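 Viability measured by Alamar Blue fluorescence (ex 544, em 590 nm) after 72 h, 37 °C compound exposure in quadruplicate, normalized to untreated cells as 100%. Cells were p27Kip1-arrested RKOp27, induced with 10 μM Ponasterone A at seeding; compound added 24 h later.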

[2] = system: RKO (RKOp27) human colon adenocarcinoma cells; assay: Alamar Blue cell viability assay, anti-proliferative/cytotoxic activity on proliferating RKOp27 cells; format: cell-based; conditions: absence of Ponasterone A, 72 hours incubation, read-out: IC50 RKO p27 proliferating
Method in brief: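 RKOp27 subclone of RKO cells, 4000/well in DMEM with 10% FCS, was treated 24 h after seeding with semi-log compound dilutions in quadruplicate for 72 h at 37 °C, 5% CO2. Alamar Blue fluorescence (ex 544/em 590 nm) was read as % viability of untreated cells, and IC50 was taken from concentration-effect curves.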

Row | SMILES | IC50 [1] [µM] | IC50 [2] [µM]
1 | CCOC(=O)N1CCc2c(sc(NC(=O)/C=C/c3ccccc3OC(C)C)c2C#N)C1 [Example 98, 3-Cyano-2-[(E)-3-(2-isopropoxy-phenyl)-allanoylamino]-4,7-dihydro-5H-thieno[2,3-c]pyridine-6-carboxylic acid ethyl ester] | ≥ 100 | ≤ 2
2 | N#Cc1c(NC(=O)/C=C/c2ccccc2)sc2c1CCN(C(=O)OCCc1ccccn1)C2 [Example 116, 3-Cyano-2-((E)-3-phenyl-allanoylamino)-4,7-dihydro-5H-thieno[2,3-c]pyridine-6-carboxylic acid 2-pyridin-2-yl-ethyl ester] | ≥ 100 | ≤ 2
3 | CCOC(=O)N1CCc2c(sc(NC(=O)/C=C/c3ccc(-c4ccccc4)o3)c2C#N)C1 [Example 91, 3-Cyano-2-[(E)-3-(5-phenyl-furan-2-yl)-allanoylamino]-4,7-dihydro-5H-thieno[2,3-c]pyridine-6-carboxylic acid ethyl ester] | ≥ 100 | ≤ 2
4 | CCCC(=O)N1CCc2c(sc(NC(=O)/C=C/c3ccccc3)c2C#N)C1 [Example 33, (E)-N-(6-Butyryl-3-cyano-4,5,6,7-tetrahydro-thieno[2,3-c]pyridin-2-yl)-3-phenyl-acrylamide] | > 100 | ≤ 2
5 | CCCCOC(=O)N1CCc2c(sc(NC(=O)/C=C/c3cccnc3)c2C#N)C1 [Example 43, 3-Cyano-2-((E)-3-pyridin-3-yl-allanoylamino)-4,7-dihydro-5H-thieno[2,3-c]pyridine-6-carboxylic acid butyl ester] | > 100 | ≤ 2
6 | CC(C)(C)OC(=O)N1CCc2c(sc(NC(=O)/C=C/c3cccnc3)c2C#N)C1 [Example 32, 3-Cyano-2-((E)-3-pyridin-3-yl-allanoylamino)-4,7-dihydro-5H-thieno[2,3-c]pyridine-6-carboxylic acid tert-butyl ester] | > 100 | ≤ 2
7 | CCOC(=O)N1CCc2c(sc(NC(=O)/C=C/c3cccc(C)c3)c2C#N)C1 [Example 16, 3-Cyano-2-((E)-3-m-tolyl-allanoylamino)-4,7-dihydro-5H-thieno[2,3-c]pyridine-6-carboxylic acid ethyl ester] | > 100 | ≤ 2
8 | CCOC(=O)N1CCc2c(sc(NC(=O)/C=C/c3ccc(C)o3)c2C#N)C1 [Example 74, 3-Cyano-2-[(E)-3-(5-methyl-furan-2-yl)-allanoylamino]-4,7-dihydro-5H-thieno[2,3-c]pyridin-6-carboxylic acid ethyl ester] | ≥ 100 | ≤ 2
9 | CCOC(=O)N1CCc2c(sc(NC(=O)/C=C/c3cccc(Cl)c3)c2C#N)C1 [Example 13, 2-[(E)-3-(3-Chloro-phenyl)-allanoylamino]-3-cyano-4,7-dihydro-5H-thieno[2,3-c]pyridine-6-carboxylic acid ethyl ester] | > 100 | ≤ 2
10 | CCOC(=O)N1CCc2c(sc(NC(=O)/C=C/c3ccccc3C(F)(F)F)c2C#N)C1 [Example 23, 3-Cyano-2-[(E)-3-(2-trifluoromethyl-phenyl)-allanoylamino]-4,7-dihydro-5H-thieno[2,3-c]pyridine-6-carboxylic acid ethyl ester] | > 100 | ≤ 2
11 | CCOC(=O)N1CCc2c(sc(NC(=O)/C=C/c3c(OC)cccc3OC)c2C#N)C1 [Example 108, 3-Cyano-2-[(E)-3-(2,6-dimethoxy-phenyl)-allanoylamino]-4,7-dihydro-5H-thieno[2,3-c]pyridine-6-carboxylic acid ethyl ester] | ≥ 100 | ≤ 2
12 | CCOC(=O)N1CCc2c(sc(NC(=O)/C=C/c3ccccc3C#N)c2C#N)C1 [Example 83, 3-Cyano-2-[(E)-3-(2-cyano-phenyl)-allanoylamino]-4,7-dihydro-5H-thieno[2,3-c]pyridine-6-carboxylic acid ethyl ester] | ≥ 100 | ≤ 2
13 | CCOC(=O)N1CCc2c(sc(NC(=O)/C=C/c3cccnc3)c2C#N)C1 [Example 7, N-(6-Ethoxycarbonyl-3-cyano-4,5,6,7-tetrahydro-thieno[2,3-c]pyridin-2-yl)-3-pyridyl-acrylamide] | > 100 | ≤ 2
14 | CCOC(=O)N1CCc2c(sc(NC(=O)/C=C/c3ccc(-c4ccccc4)s3)c2C#N)C1 [Example 85, 3-Cyano-2-[(E)-3-(5-phenyl-thiophen-2-yl)-allanoylamino]-4,7-dihydro-5H-thieno[2,3-c]pyridine-6-carboxylic acid ethyl ester] | ≥ 100 | ≤ 2

Now from value to compound, other results behind:

Row | IC50 [1] [µM] | SMILES | IC50 [2] [µM]
15 | ≥ 100 | COc1ccccc1/C=C/C(=O)Nc1sc2c(c1C#N)CCN(C(=O)OCc1cccnc1)C2 [Example 140, 3-Cyano-2-[(E)-3-(2-methoxy-phenyl)-allanoylamino]-4,7-dihydro-5H-thieno[2,3-c]pyridine-6-carboxylic acid pyridin-3-ylmethyl ester] | ≤ 2
16 | ≥ 100 | N#Cc1c(NC(=O)/C=C/c2ccccc2)sc2c1CCN(C(=O)OCCCc1ccncc1)C2 [Example 117, 3-Cyano-2-((E)-3-phenyl-allanoylamino)-4,7-dihydro-5H-thieno[2,3-c]pyridine-6-carboxylic acid 3-pyridin-4-yl-propyl ester] | ≤ 2
17 | ≥ 100 | N#Cc1c(NC(=O)/C=C/c2cccnc2)sc2c1CCN(C(=O)OCCc1ccccn1)C2 [Example 158, 3-Cyano-2-((E)-3-pyridin-3-yl-allanoylamino)-4,7-dihydro-5H-thieno[2,3-c]pyridine-6-carboxylic acid 2-pyridin-2-ylethyl ester] | ≤ 2
18 | ≥ 100 | N#Cc1c(NC(=O)/C=C/c2ccccc2)sc2c1CCN(C(=O)CO)C2 [Example 187, (E)-N-[3-Cyano-6-(2-hydroxy-ethanoyl)-4,5,6,7-tetrahydro-thieno[2,3-c]pyridin-2-yl]-3-phenyl-acrylamide] | ≤ 2
19 | ≥ 100 | N#Cc1c(NC(=O)/C=C/c2ccccc2)sc2c1CCN(C(=O)OCCO)C2 [Example 135, 3-Cyano-2-((E)-3-phenyl-allanoylamino)-4,7-dihydro-5H-thieno[2,3-c]pyridine-6-carboxylic acid 2-hydroxy-ethyl ester] | ≤ 2
20 | ≥ 100 | COc1cccc(COC(=O)N2CCc3c(sc(NC(=O)/C=C/c4cccnc4)c3C#N)C2)c1 [Example 147, 3-Cyano-2-((E)-3-pyridin-3-yl-allanoylamino)-4,7-dihydro-5H-thieno[2,3-c]pyridine-6-carboxylic acid 3-methoxy-benzyl ester] | ≤ 2
21 | ≥ 100 | COCCOCC(=O)N1CCc2c(sc(NC(=O)/C=C/c3ccccc3OC)c2C#N)C1 [Example 209, (E)-N-{3-Cyano-6-[2-(2-methoxy-ethoxy)-ethanoyl]-4,5,6,7-tetrahydro-thieno[2,3-c]pyridin-2-yl}-3-(2-methoxy-phenyl)-acrylamide] | ≤ 2
22 | ≥ 100 | CCOc1ccccc1/C=C/C(=O)Nc1sc2c(c1C#N)CCN(C(=O)CCn1ccnc1)C2 [Example 224, (E)-N-[3-Cyano-6-(3-imidazol-1-yl-propanoyl)-4,5,6,7-tetrahydro-thieno[2,3-c]pyridin-2-yl]-3-(2-ethoxy-phenyl)-acrylamide] | ≤ 2
23 | ≥ 100 | N#Cc1c(NC(=O)/C=C/c2ccccc2)sc2c1CCN(C(=O)Cc1cccnc1)C2 [Example 183, (E)-N-[3-Cyano-6-(2-pyridin-3-yl-ethanoyl)-4,5,6,7-tetrahydro-thieno[2,3-c]pyridin-2-yl]-3-phenyl-acrylamide] | ≤ 2
24 | ≥ 100 | N#Cc1c(NC(=O)/C=C/c2ccccc2Cl)sc2c1CCN(C(=O)Cc1ccncc1)C2 [Example 214, (E)-3-(2-Chloro-phenyl)-N-[3-cyano-6-(2-pyridin-4-yl-ethanoyl)-4,5,6,7-tetrahydro-thieno[2,3-c]pyridin-2-yl]-acrylamide] | ≤ 2
25 | ≥ 100 | COC(=O)CCCC(=O)N1CCc2c(sc(NC(=O)/C=C/c3ccccc3)c2C#N)C1 [Example 186, 5-[3-Cyano-2-((E)-3-phenyl-allanoylamino)-4,7-dihydro-5H-thieno[2,3-c]pyridin-6-yl]-5-oxo-pentanoic acid methyl ester] | ≤ 2
26 | ≥ 100 | N#Cc1c(NC(=O)/C=C/c2cccnc2)sc2c1CCN(C(=O)OCc1ccccc1)C2 [Example 144, 3-Cyano-2-((E)-3-pyridin-3-yl-allanoylamino)-4,7-dihydro-5H-thieno[2,3-c]pyridine-6-carboxylic acid benzyl ester] | ≤ 2
27 | ≥ 100 | CCOc1ccccc1/C=C/C(=O)Nc1sc2c(c1C#N)CCN(C(=O)OCCOC)C2 [Example 235, 3-Cyano-2-[(E)-3-(2-ethoxy-phenyl)-allanoylamino]-4,7-dihydro-5H-thieno[2,3-c]pyridine-6-carboxylic acid 2-methoxy-ethyl ester] | ≤ 2
28 | ≥ 100 | COCCOC(=O)N1CCc2c(sc(NC(=O)/C=C/c3ccccc3)c2C#N)C1 [Example 118, 3-Cyano-2-((E)-3-phenyl-allanoylamino)-4,7-dihydro-5H-thieno[2,3-c]pyridine-6-carboxylic acid 2-methoxy-ethyl ester] | ≤ 2
29 | ≥ 100 | COCCOCC(=O)N1CCc2c(sc(NC(=O)/C=C/c3cccnc3)c2C#N)C1 [Example 200, (E)-N-{3-Cyano-6-[2-(2-methoxy-ethoxy)-ethanoyl]-4,5,6,7-tetrahydro-thieno[2,3-c]pyridin-2-yl}-3-pyridin-3-yl-acrylamide] | ≤ 2
